Reference: patent US10759994B2, “Luminogenic transition metal-based pyridyl complex and its use” (City University of Hong Kong, priority 2016, dated 2020)

What was measured:
[1] = system: HeLa cells; experiment: Cellular uptake by ICP-MS in HeLa cells; type: cell-based; settings: complex 40 μM, 12 h; for Uptake by BCN-C10-pretreated cells relative to untreated cells: HeLa cells, BCN-C10 pretreatment; for Amount of ruthenium associated with an average HeLa cell: 37° C., ICP-MS, untreated cells
Experimental: The cellular uptake of complexes 1a-5b was examined by ICP-MS. […] This finding should originate from intracellular esterases that convert the ester moieties of complex 3a into negatively charged carboxyl groups, enhancing its intracellular retention. […] Upon incubation of the untreated cells with the complexes, the amounts of ruthenium taken up by an average cell followed the order: 1 b<3b<5b<2b<4b, which seems to be in accordance with their lipophilic character. […] These findings indicate that the accumulation of the complexes 1 b-5b in BCN-C10-pretreated cells is not only associated with their lipophilicity, but also strongly affected by the bioorthogonal labeling of BCN-C10.
More specifically, for determining the cellular uptake of complexes 1a-3a, CHO-K1 cells were incubated in growth medium/DMSO (99:1, v/v) containing the iridium(III) complex (5 μM) in the dark at 37° C. under a 5% CO2 atmosphere for 1 h. The medium was removed, and the cell layer was thoroughly washed with PBS (1 mL×3). The cells were trypsinized by trypsin-EDTA (500 μL) and harvested with PBS. The resultant solution (2 mL) was heated with 65% HNO3 (2 mL) at 70° C. for 2 h, cooled to room temperature, and analyzed using an Elan 6100 DCR-ICP-MS (PerkinElmer SCIEX Instruments). For determining the cellular uptake of complexes 1 b 5b, HeLa cells with or without pretreatment of BCN-C10 were incubated in growth medium/DMSO (99:1, v/v) containing the ruthenium(II) complexes (40 μM) in the dark at 37° C. under a 5% CO2 atmosphere. After incubation for 12 h, the medium was removed and the cells were thoroughly washed with PBS (1 mL×3). The cells were typsinized by trypsin-EDTA (500 μL) and harvested with PBS. The resultant solution (1.5 mL) was heated with 65% HNO3 (1 mL) at 60° C. for 2 h, cooled to room temperature, and analyzed using an Elan 6100 DCR-ICP-MS.

[2] = system: HeLa cells; experiment: LSCM imaging of bioorthogonal labeling of BCN-C10 in HeLa cells; type: cell-based; settings: for Subcellular structure stained / Staining pattern over time: BCN-C10-pretreated HeLa cells; for Staining pattern over time / Intracellular emission with BCN-C10 pretreatment: complex 40 μM; for Intracellular emission with BCN-C10 pretreatment: HeLa cells, BCN-C10 200 μM 1 h, λex=488 nm
Excerpt: (“1 b”, “2b”, “3b”, “4b”, and “5b” indicate the complexes of the present invention; “—BCN-C10” means BCN-C10-untreated HeLa cells; “+BCN-C10” means BCN-C10-pretreated HeLa cells).
(“2b” and “5b” indicate the complexes of the present invention; “—BCN-C10” means BCN-C10-untreated HeLa cells; “+BCN-C10” means BCN-C10-pretreated HeLa cells).
The bioorthogonal labeling properties of complexes 1a-5b were investigated using CHO-K1 or HeLa cells with or without pretreatment of an exogenous molecule BCN-010, i.e., a BCN-modified decane molecule. The intracellular distribution of BCN-C10 was then imaged using laser scanning confocal microscopy (LSCM).
In the study of the ruthenium(II) nitrone complexes, live HeLa cells were treated with BCN-C10 (200 μM) for 1 h, thoroughly washed with PBS, then incubated with complexes 1b-5b (40 μM) for 12 h, and finally imaged by LSCM. More specifically, HeLa cells were incubated in growth medium/DMSO (99:1, v/v) containing BCN-C10 (200 μM) in the dark at 37° C. under a 5% CO2 atmosphere for 1 h. After treatment, the medium was removed, the cells were washed thoroughly with PBS (1 mL×3), and then incubated in growth medium/DMSO (99:1, v/v) containing the ruthenium(II) complex (40 μM) in the dark at 37° C. under a 5% CO2 atmosphere. After incubation for 3, 6, 12, or 24 h, the culture medium was removed and the cell was were washed with PBS (1 mL×3). The coverslip was mounted onto a sterilized glass slide and then imaging was performed using a Leica TCS SPE confocal microscope with an oil immersion 63× objective len and an excitation wavelength at 488 nm. […] Additionally, BCN-C10-pretreated cells were incubated with complexes 2b and 5b for different time periods (3, 6, 12, and 24 h) (FIG. 6). […] The regioselective staining is assumed to be closely related to the subcellular distribution of BCN-C10, and the lipophilicity and reactivity of the complexes.

| SMILES | Uptake by BCN-C10-pretreated cells relative to untreated cells [1] [fold] | Amount of ruthenium associated with an average HeLa cell [1] [fmol] | Subcellular structure stained [2] | Staining pattern over time ([2]; 6 h) | Staining pattern over time ([2]; 12 h) | Staining pattern over time ([2]; 24 h) | Intracellular emission with BCN-C10 pretreatment ([2]; 12 h) |
| --- | --- | --- | --- | --- | --- | --- | --- |
| Cc1ccnc(-c2cc(/C=[N+](\[O-])c3ccccc3)ccn2)c1.F[P-](F)(F)(F)(F)F.F[P-](F)(F)(F)(F)F.[Ru+2].c1ccc(-c2ccccn2)nc1.c1ccc(-c2ccccn2)nc1 [Complex 5b] | 2.48 | 1.09 ± 0.03 | cell membrane staining | selectively lighted up the cell surface | intense cell membrane staining plus some sharp vesicles in the cytoplasmic regions adjacent to cell membrane | intense granular staining in the cytoplasm | intense subcellular staining |
| CCCCNC(=O)c1ccnc(-c2cc(C(=O)NCCCC)ccn2)c1.CCCCNC(=O)c1ccnc(-c2cc(C(=O)NCCCC)ccn2)c1.Cc1ccnc(-c2cc(/C=[N+](/C)[O-])ccn2)c1.F[P-](F)(F)(F)(F)F.F[P-](F)(F)(F)(F)F.[Ru+2] [Complex 2b] | 8.89 | 1.32 ± 0.08 | cell membrane staining | selectively lighted up the cell surface | intense cell membrane staining plus some sharp vesicles in the cytoplasmic regions adjacent to cell membrane | intense granular staining in the cytoplasm | intense subcellular staining |
| Cc1ccnc(-c2cc(/C=[N+](/C)[O-])ccn2)c1.F[P-](F)(F)(F)(F)F.F[P-](F)(F)(F)(F)F.[Ru+2].c1ccc(-c2ccccn2)nc1.c1ccc(-c2ccccn2)nc1 [Complex 1b] |  | 0.31 ± 0.01 | punctate cell surface staining |  |  |  | weak but enhanced emission |
